Experimental data reported in patent US11370794B2, “Toll-like receptor antagonist compounds and methods of use” (Dynavax Technologies Corporation, priority 2016, dated 2022).
Where two headings read alike, the source gives them in different places.

How the values were obtained:
human TLR8 = target: T1, human TLR8 (Homo sapiens, UniProt Q9NR97); experiment: Inhibition of human TLR8 in human monocytes (TNF-alpha / IL-1 beta ELISA); assay type: cell-based; conditions: human monocytes, agonist ORN8L 100 μg/mL, 24 hours
T1 construct: endogenous in cells; host or cells: primary human monocytes (CD14 microbeads) from buffy coats of healthy donors
T1 sequence (Q9NR97 27-1041): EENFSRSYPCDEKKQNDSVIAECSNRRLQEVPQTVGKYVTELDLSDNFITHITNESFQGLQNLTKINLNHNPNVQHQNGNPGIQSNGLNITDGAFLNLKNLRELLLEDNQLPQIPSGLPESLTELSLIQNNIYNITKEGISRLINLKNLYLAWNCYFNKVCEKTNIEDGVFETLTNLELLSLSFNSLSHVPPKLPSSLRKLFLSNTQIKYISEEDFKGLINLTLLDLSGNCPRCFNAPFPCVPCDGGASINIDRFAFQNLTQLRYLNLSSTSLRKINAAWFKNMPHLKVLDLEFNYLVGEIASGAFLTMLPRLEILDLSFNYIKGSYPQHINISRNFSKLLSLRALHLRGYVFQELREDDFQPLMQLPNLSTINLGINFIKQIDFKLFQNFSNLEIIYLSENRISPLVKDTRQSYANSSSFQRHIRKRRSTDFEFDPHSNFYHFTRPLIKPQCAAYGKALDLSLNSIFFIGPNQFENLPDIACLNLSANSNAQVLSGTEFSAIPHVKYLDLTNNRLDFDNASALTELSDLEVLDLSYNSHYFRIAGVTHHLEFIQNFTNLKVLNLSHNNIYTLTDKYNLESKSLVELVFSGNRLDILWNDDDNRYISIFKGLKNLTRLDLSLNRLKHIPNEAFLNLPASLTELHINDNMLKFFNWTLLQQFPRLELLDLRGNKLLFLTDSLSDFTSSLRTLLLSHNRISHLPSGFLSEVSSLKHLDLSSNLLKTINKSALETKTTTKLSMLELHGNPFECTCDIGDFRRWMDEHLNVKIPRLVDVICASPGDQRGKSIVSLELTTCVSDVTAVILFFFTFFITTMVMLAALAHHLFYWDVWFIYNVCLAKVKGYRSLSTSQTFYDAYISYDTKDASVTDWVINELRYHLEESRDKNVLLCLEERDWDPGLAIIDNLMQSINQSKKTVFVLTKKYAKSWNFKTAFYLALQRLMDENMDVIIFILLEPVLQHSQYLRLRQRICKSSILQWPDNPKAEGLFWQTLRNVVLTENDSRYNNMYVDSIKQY
Method in brief: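 Primary human monocytes from donor buffy coats (~200,000 cells/well) given serially diluted compound, then ORN8L RNA oligonucleotide agonist at 100 μg/mL final. After 24 h at 37 °C, supernatant TNF-alpha and/or IL-1 beta measured by ELISA; IC50 from the concentration-response of cytokine release.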

human TLR9 = target: T2, human TLR9 (Homo sapiens, UniProt Q9NR96); experiment: Inhibition of human TLR9 in human B cells (IL-6 ELISA); assay type: cell-based; conditions: for IC50: human B cells, agonist 1018 ISS 1 μM
T2 construct: endogenous in cells; host or cells: primary human B cells (CD19 microbeads) from buffy coats of healthy donors
T2 sequence (Q9NR96 26-1032): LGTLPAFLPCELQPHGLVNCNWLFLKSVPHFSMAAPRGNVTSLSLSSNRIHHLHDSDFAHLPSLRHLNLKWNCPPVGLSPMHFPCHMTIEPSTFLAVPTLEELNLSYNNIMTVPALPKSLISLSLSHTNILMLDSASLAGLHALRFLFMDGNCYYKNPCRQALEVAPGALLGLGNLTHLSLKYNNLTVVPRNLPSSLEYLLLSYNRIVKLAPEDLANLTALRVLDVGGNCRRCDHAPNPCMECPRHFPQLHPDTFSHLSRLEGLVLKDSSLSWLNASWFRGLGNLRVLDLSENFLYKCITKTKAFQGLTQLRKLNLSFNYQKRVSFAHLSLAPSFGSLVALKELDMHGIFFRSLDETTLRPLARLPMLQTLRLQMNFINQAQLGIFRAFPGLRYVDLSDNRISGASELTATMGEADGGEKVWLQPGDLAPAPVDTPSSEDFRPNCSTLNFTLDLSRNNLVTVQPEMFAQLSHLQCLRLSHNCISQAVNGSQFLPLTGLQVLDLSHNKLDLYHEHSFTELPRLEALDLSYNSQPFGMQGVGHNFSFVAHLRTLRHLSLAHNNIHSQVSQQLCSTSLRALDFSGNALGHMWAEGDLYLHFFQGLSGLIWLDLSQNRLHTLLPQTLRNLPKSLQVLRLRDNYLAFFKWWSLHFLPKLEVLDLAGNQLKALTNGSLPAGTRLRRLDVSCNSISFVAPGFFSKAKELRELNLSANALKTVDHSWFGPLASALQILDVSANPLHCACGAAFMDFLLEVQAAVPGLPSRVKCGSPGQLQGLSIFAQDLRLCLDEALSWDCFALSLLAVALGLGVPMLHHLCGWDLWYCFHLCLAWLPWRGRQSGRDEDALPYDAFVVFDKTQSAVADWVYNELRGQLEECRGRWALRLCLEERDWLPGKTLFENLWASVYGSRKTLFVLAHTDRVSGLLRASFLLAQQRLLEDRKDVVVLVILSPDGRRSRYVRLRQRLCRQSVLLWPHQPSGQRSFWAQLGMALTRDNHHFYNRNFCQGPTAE
Method in brief: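 Primary human B cells (CD19-isolated from donor buffy coats), ~300,000 per well, treated with compound (about 0.01–10 μM, some 0.001–30 μM) then 1 μM CpG oligonucleotide 1018 ISS. After 48 hours at 37° C, supernatant IL-6 measured by ELISA; IC50 from concentration-response of TLR9-dependent activity.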

[1] = IL-1 beta readout, read-out: Human TLR8 IC50 IL-1b
[2] = TNF-alpha readout, read-out: Human TLR8 IC50 TNF-a
[3] = IL-6 readout, 48 hours, range about 0.01 to 10 μM, read-out: Human TLR9 IC50

IC50 (human TLR8; [1]) [µM] | IC50 (human TLR8; [2]) [µM] | IC50 (human TLR9; [3]) [µM] | IC50 (human TLR9; IL-6, 48 hours, expanded dilution series about 0.001 to 30 μM, read-out: Human TLR9 IC50, expanded dilution series) [µM] | inhibits TLR9-dependent responses (in words) (human TLR9; summary statement of the description) | Structure (SMILES)
> 10 | > 10 | 0.083 |  |  | Cc1ccc(-n2nc3c(N4CCC(C(=O)NC5CCN(C)C5)CC4)nnc(C)c3c2C)cc1 (stereo not drawn) [compound 17, 1-(3,4-dimethyl-2-(p-tolyl)-2H-pyrazolo[3,4-d]pyridazin-7-yl)-N-(1-methylpyrrolidin-3-yl)piperidine-4-carboxamide]
 | ≥ 20 | > 10 |  |  | Cc1nnc(N2CCC(C(=O)NCCCN(C)C)CC2)c2nn(-c3cccnc3)c(C)c12 [compound 23, 1-(3,4-dimethyl-2-(pyridin-3-yl)-2H-pyrazolo[3,4-d]pyridazin-7-yl)-N-(3-(dimethylamino)propyl)piperidine-4-carboxamide]
 | ≥ 20 | 0.4 |  |  | Cc1nnc(N2CCC(C(=O)NCCCN(C)C)CC2)c2nn(-c3ccsc3)c(C)c12 [compound 24, 1-(3,4-dimethyl-2-(thiophen-3-yl)-2H-pyrazolo[3,4-d]pyridazin-7-yl)-N-(3-(dimethylamino)propyl)piperidine-4-carboxamide]
 | ≥ 20 | 0.251 |  |  | Cc1ccc(-n2nc3c(N4CCC(C(=O)NCCCN(C)C)CC4)nnc(C)c3c2-c2ccccc2)cc1 [compound 34, N-(3-(dimethylamino)propyl)-1-(4-methyl-3-phenyl-2-(p-tolyl)-2H-pyrazolo[3,4-d]pyridazin-7-yl)piperidine-4-carboxamide]
 | ≥ 20 | 3.71 |  |  | Cc1ccc(-n2nc3c(N4CCC(C(=O)NCCCN(C)C)CC4)nnc(-c4ccccc4)c3c2C)cc1 [compound 35, N-(3-(dimethylamino)propyl)-1-(3-methyl-4-phenyl-2-(p-tolyl)-2H-pyrazolo[3,4-d]pyridazin-7-yl)piperidine-4-carboxamide]
 | 7.68 | 1.15 |  |  | Cc1ccc(-n2nc3c(N4CCC(C(=O)NCCCN(C)C)CC4)nnc(Cl)c3c2C)cc1 [compound 36, 1-(4-chloro-3-methyl-2-(p-tolyl)-2H-pyrazolo[3,4-d]pyridazin-7-yl)-N-(3-(dimethylamino)propyl)piperidine-4-carboxamide]
 | ≥ 20 | 0.04 |  |  | Cc1ccc(-n2nc3c(N4CCC(C(=O)NCCCCCCN(C)C)CC4)nnc(C)c3c2C)cc1 [compound 38, 1-(3,4-dimethyl-2-(p-tolyl)-2H-pyrazolo[3,4-d]pyridazin-7-yl)-N-(6-(dimethylamino)hexyl)piperidine-4-carboxamide]
 | ≥ 20 | 0.133 |  |  | Cc1ccc(-n2nc3c(N4CCC(C(=O)NCCCN(C)C)CC4)nncc3c2C)cc1 [compound 42, N-(3-(dimethylamino)propyl)-1-(3-methyl-2-(p-tolyl)-2H-pyrazolo[3,4-d]pyridazin-7-yl)piperidine-4-carboxamide]
 | ≥ 20 | 0.202 |  |  | Cc1ccc(-n2nc3c(N4CCC(C(=O)N5CCC(N(C)C)C5)CC4)nnc(C)c3c2C)cc1 (stereo not drawn) [compound 44, (1-(3,4-dimethyl-2-(p-tolyl)-2H-pyrazolo[3,4-d]pyridazin-7-yl)piperidin-4-yl)(3-(dimethylamino)pyrrolidin-1-yl)methanone]

More lines, now with the values behind:

Structure (SMILES) | IC50 (human TLR8; [1]) [µM] | IC50 (human TLR8; [2]) [µM] | IC50 (human TLR9; [3]) [µM] | IC50 (human TLR9; IL-6, 48 hours, expanded dilution series about 0.001 to 30 μM, read-out: Human TLR9 IC50, expanded dilution series) [µM] | inhibits TLR9-dependent responses (in words) (human TLR9; summary statement of the description)
Cc1ccc(-n2nc3c(N4CCC(C(=O)NC5CCN(C)CC5)CC4)nnc(C)c3c2C)cc1 [compound 18, 1-(3,4-dimethyl-2-(p-tolyl)-2H-pyrazolo[3,4-d]pyridazin-7-yl)-N-(1-methylpiperidin-4-yl)piperidine-4-carboxamide] | > 10 | > 10 | 0.137 |  | 
Cc1nnc(N2CCC(C(=O)NCCCN(C)C)CC2)c2nn(C3CCOCC3)c(C)c12 [compound 25, 1-(3,4-dimethyl-2-(tetrahydro-2H-pyran-4-yl)-2H-pyrazolo[3,4-d]pyridazin-7-yl)-N-(3-(dimethylamino)propyl)piperidine-4-carboxamide] |  | ≥ 20 | > 10 |  | 
Cc1nnc(N2CCC(C(=O)NCCCN(C)C)CC2)c2nn(C(C)C)c(C)c12 [compound 27, N-(3-(dimethylamino)propyl)-1-(2-isopropyl-3,4-dimethyl-2H-pyrazolo[3,4-d]pyridazin-7-yl)piperidine-4-carboxamide] |  | ≥ 20 | > 10 |  | 
Cc1ccc(-n2nc3c(N4CCC(C(=O)NCCCCN(C)C)CC4)nnc(C)c3c2C)cc1 [compound 31, 1-(3,4-dimethyl-2-(p-tolyl)-2H-pyrazolo[3,4-d]pyridazin-7-yl)-N-(4-(dimethylamino)butyl)piperidine-4-carboxamide] |  | 2.68 | 0.086 |  | 
Cc1ccc(-n2nc3c(N4CCC(C(=O)NCCCCCN(C)C)CC4)nnc(C)c3c2C)cc1 [compound 32, 1-(3,4-dimethyl-2-(p-tolyl)-2H-pyrazolo[3,4-d]pyridazin-7-yl)-N-(5-(dimethylamino)pentyl)piperidine-4-carboxamide] | > 10 | > 10 | 0.055 |  | 
CCN1CCN(C(=O)C2CCN(c3nncc4cn(-c5ccc(C)cc5)nc34)CC2)CC1 [compound 40, (4-ethylpiperazin-1-yl)(1-(2-(p-tolyl)-2H-pyrazolo[3,4-d]pyridazin-7-yl)piperidin-4-yl)methanone] |  | 0.226 | 0.026 |  | 
Cc1ccc(-n2nc3c(N4CCC(C(=O)NCCCN(C)C)CC4)nnc(I)c3c2C)cc1 [compound 41, N-(3-(dimethylamino)propyl)-1-(4-iodo-3-methyl-2-(p-tolyl)-2H-pyrazolo[3,4-d]pyridazin-7-yl)piperidine-4-carboxamide] |  | ≥ 20 | 0.793 |  | 
CCN(CC)C1CCN(C(=O)C2CCN(c3nnc(C)c4c(C)n(-c5ccc(C)cc5)nc34)CC2)CC1 [compound 43, (4-(diethylamino)piperidin-1-yl)(1-(3,4-dimethyl-2-(p-tolyl)-2H-pyrazolo[3,4-d]pyridazin-7-yl)piperidin-4-yl)methanone] |  | ≥ 20 | 0.001 | 0.013 | inhibit
